From US4528294A, “Benzoyl-phenyl-piperidine derivatives” (Societe de Recherches Industrielle S.O.R.I., priority 1981, dated 1985)

Experiments:
mouse = assay: Toxicity (LD-50 and LD-0), i.p. route in the mouse; assay type: in vivo
Experimental: (§1) The toxicity (LD-50 and LD-0) was determined by the i.p. route in the mouse according to the technique of S. T. Litchfield described in J. Pharm. Exp. Ther. 96, 99 (1949).

lymphocytes of the mouse = assay: Stimulation in vitro of mouse lymphocytes (tritium-marked thymidine incorporation); assay type: cell-based, mouse (DBA/2); conditions: at the optimal concentration; thymidine incorporation in 24 hours with respect to control culture; PHA and PWM
Experimental: Lymphocytes (5×10^5 cells per measurement) extracted from the spleen of inbred mice (DBA/2) are incubated for 36 hours at 37° C. in an atmosphere of oxygen with 5% of CO2 in a culture medium (RPMI 1640) containing:
10% (by weight) of foetal calf serum (100 μl per measurement)
10 μl of a solution of lectins in the proportion of 5 μg/ml of phytohemaglutinine (PHA) and 40 μg/ml of Pokeweed Mitogen (PWM), and
the substance to be tested.
The activity is evaluated by measuring the radio-activity obtained by incorporation in 24 hours of 2 μCi (i.e. 7.4×10^4 becquerels) of tritium-marked thymidine, with respect to a control culture.
The results obtained are grouped together in Table II hereinbelow which gives the optimum concentration of the products in μg/ml, and where symbols +, ++ and +++ signify: […]

[1] = Toxicity (LD-50 and LD-0), i.p. route in the mouse; assay type: in vivo; conditions: in vivo, ip
Experimental: as §1

delayed hypersensitivity = assay: Delayed hypersensitivity test; assay type: in vivo; conditions: single dose of 5 mg/kg per os, mouse, three days before sensitization
Excerpt: Furthermore, the product of Example 2 (Code No. 442) was studied according to the delayed hypersensitivity test following the modus operandi described by P. H. Lagrange et al., J. Exp. Med. 139, 1529-1539 (1974).

CC(C)(C)C1CCN(c2ccc(N)cc2C(=O)c2ccc(Cl)cc2)CC1 [Example 31]
LD-0 (mouse): > 800 mg/kg

CC1CCN(c2ccc(N)cc2C(=O)c2ccc(Br)cc2)CC1 [Example 30]
LD-0 (mouse): > 800 mg/kg

Nc1ccc(N2CCCCC2)c(C(=O)c2ccc(Cl)cc2)c1 [Example 12]
LD-0 (mouse): > 800 mg/kg
Stimulation (lymphocytes of the mouse): + (stimulation of 0 to 50%)

COc1ccc(C(=O)c2cc(N)ccc2N2CCC(C)CC2)cc1 [Example 23]
LD-0 (mouse): > 800 mg/kg
Stimulation (lymphocytes of the mouse): ++ (stimulation of 50% to 100%)

CC1CCCN(c2ccc(N)cc2C(=O)c2ccc(Cl)cc2)C1 (centres unmarked) [Example 14]
Stimulation (lymphocytes of the mouse): ++ (stimulation of 50% to 100%)

CC1CCN(c2ccc(N)cc2C(=O)c2ccc(F)cc2)CC1 [Example 17]
LD-0 (mouse): > 800 mg/kg
Stimulation (lymphocytes of the mouse): + (stimulation of 0 to 50%)

CC1CCN(c2ccc(N(C)C)cc2C(=O)c2ccc(Cl)cc2)CC1 [Example 5]
LD-0 (mouse): > 800 mg/kg
Stimulation (lymphocytes of the mouse): + (stimulation of 0 to 50%)

COc1ccc(C(=O)c2cc(N)ccc2N2CCC(C)CC2)cc1OC [Example 9]
LD-0 (mouse): > 800 mg/kg
Stimulation (lymphocytes of the mouse): + (stimulation of 0 to 50%)

CC1CCN(c2ccc(Cl)cc2C(=O)c2ccc(Cl)cc2)CC1 [Example 22]
LD50 [1]: 1800 mg/kg
Stimulation (lymphocytes of the mouse): + (stimulation of 0 to 50%)

Cc1cc(C(=O)c2cc(N)ccc2N2CCC(C)CC2)cc(C)c1C [Example 29]
LD-0 (mouse): > 800 mg/kg
Stimulation (lymphocytes of the mouse): + (stimulation of 0 to 50%)

CC1CCN(c2ccc(N)cc2C(=O)c2ccccc2Cl)CC1 [Example 8]
LD-0 (mouse): > 800 mg/kg
Stimulation (lymphocytes of the mouse): + (stimulation of 0 to 50%)

CC1CCCCN1c1ccc(N)cc1C(=O)c1ccc(Cl)cc1 (centres unmarked) [Example 20]
LD-0 (mouse): > 800 mg/kg
Stimulation (lymphocytes of the mouse): +++ (stimulation greater than 100%)

Cc1ccc(C(=O)c2cc(N)ccc2N2CCC(C)CC2)cc1 [Example 15]
LD-0 (mouse): > 800 mg/kg
Stimulation (lymphocytes of the mouse): ++ (stimulation of 50% to 100%)

CCOC(=O)Nc1ccc(N2CCC(C)CC2)c(C(=O)c2ccc(Cl)cc2)c1 [Example 3, [2-(4-methyl-1-piperidinyl)-5-(N-ethoxycarbonyl-amino)-phenyl]-(4-chlorophenyl)-methanone]
LD-0 (mouse): > 800 mg/kg
Stimulation (lymphocytes of the mouse): ++ (stimulation of 50% to 100%)

Cc1ccc(C(=O)c2cc(N)ccc2N2CCC(C)CC2)c(C)c1 [Example 16]
LD50 [1]: 750 mg/kg
Stimulation (lymphocytes of the mouse): ++ (stimulation of 50% to 100%)

CNc1ccc(N2CCC(C)CC2)c(C(=O)c2ccc(Cl)cc2)c1 [Example 6, [2-(4-methyl-1-piperidinyl)-5-methylamino-phenyl]-(4-chlorophenyl)methanone]
LD-0 (mouse): > 800 mg/kg
Stimulation (lymphocytes of the mouse): + (stimulation of 0 to 50%)

CC1CCN(c2ccc(N)cc2C(=O)c2ccccc2)CC1 [Example 27, [2-(4-methyl-1-piperidinyl)-5-aminophenyl]-phenyl-methanone]
LD-0 (mouse): > 800 mg/kg
Stimulation (lymphocytes of the mouse): + (stimulation of 0 to 50%)

CC1CCN(c2ccc([N+](=O)[O-])cc2C(=O)c2ccc(Cl)cc2)CC1 [Example 1, [2-(4-methyl-1-piperidinyl)-5-nitrophenyl]-(4-chlorophenyl)-methanone]
LD-0 (mouse): > 800 mg/kg
Stimulation (lymphocytes of the mouse): ++ (stimulation of 50% to 100%)

CC1CCN(c2ccccc2C(=O)c2ccccc2)CC1 [Example 4, [2-(4-methyl-1-piperidinyl)-phenyl]-phenyl-methanone]
LD-0 (mouse): > 800 mg/kg

COc1ccc(C(=O)c2ccccc2N2CCC(C)CC2)cc1 [Example 24]
LD-0 (mouse): > 800 mg/kg
Stimulation (lymphocytes of the mouse): + (stimulation of 0 to 50%)

CC1CCN(c2ccccc2C(=O)c2ccc(Cl)cc2)CC1 [Example 21]
LD50 [1]: 1800 mg/kg

CC1CCN(c2ccc(N)cc2C(=O)c2ccc(Cl)cc2)CC1 [Example 2, [2-(4-methyl-1-piperidinyl)-5-aminophenyl]-(4-chlorophenyl)-methanone]
LD50 [1]: 1300 mg/kg
Stimulation (lymphocytes of the mouse): +++ (stimulation greater than 100%)
reduction of the delayed hypersensitivity (delayed hypersensitivity): reduction by half

CC1CC(C)CN(c2ccc(N)cc2C(=O)c2ccc(Cl)cc2)C1 (centres unmarked) [Example 19]
LD-0 (mouse): > 800 mg/kg
Stimulation (lymphocytes of the mouse): ++ (stimulation of 50% to 100%)

CC1CCN(c2ccc(N)cc2C(=O)c2ccc(Cl)c(Cl)c2)CC1 [Example 28]
LD-0 (mouse): > 800 mg/kg
Stimulation (lymphocytes of the mouse): ++ (stimulation of 50% to 100%)
